Consider one compound from patent publication US8729122B2, “Pharmaceutical and nutraceutical compositions of abscisic acid” (Valent BioSciences Corporation, priority 2010, dated 2014).

The nature of experiment [1]: Fetal data at scheduled necropsy. The experiment is classed as in vivo, rats. An excerpt:
Observations and testing results from this study can be seen in Tables 1, 3 and 6-13 below.
Further supporting data can be seen below in Tables 10 and 11 showing that at necropsy fetus numbers and follicle size increase with the addition of S-ABA.

Experiment [2] deals with rats. The experiment is described as follows: 90-Day Oral Toxicity Study in Rodents (dietary S-ABA). The experiment is classed as in vivo. The settings on record: for PROSTATE WEIGHT, mean: 90 days. As to the method: Tests were conducted with (S)-(+)-abscisic acid in accordance with standard guidelines and procedures as evidenced by EPA Subchronic Toxicity Test Guidelines: 870.3050—Repeated Dose 28-Day Oral Toxicity Study in Rodents (July 2000); 870.3100—90-Day Oral Toxicity in Rodents (August 1998); 870.3650—Combined Repeated Dose Toxicity Study with the Reproduction/Developmental Toxicity Screening Test (July 2000); and 870.3200—21/28-Day Dermal Toxicity (August 1998), as well as Organization for Economic Co-operation and Development (OECD) Guidelines for the Testing of Chemicals including: Test No. 407: Repeated Dose 28-day Oral Toxicity Study in Rodents; Test No. 408: Repeated Dose 90-Day Oral Toxicity Study in Rodents; Test No. 416: Two-Generation Reproduction Toxicity; and Test No. 410: Repeated Dose Dermal Toxicity: 21/28-day Study.
90-Day Oral Toxicity Study in Rodents
From the batch supplied (42 males and 42 females), 40 males and 40 females were assigned to the study. Animals were allocated to 4 dose groups and treated as follows:
The animals were dosed by the dietary route 7 days/week for 13 consecutive weeks and up to immediately before terminal kill. Control animals received blank diet only. The concentration was constant throughout the treatment period. Detailed examinations were conducted on all animals during Weeks 4, 8 and 12. Histopathological evaluation of all tissues was undertaken for all animals in the Control and dose groups. Observations and testing results from this study can be seen in Tables 2, 4 and 5 below.
In a 90 day toxicity study in rats, glucose and triglyceride levels were measured.

Experiment [3] concerns rats. As to the kind of experiment: Rat neurotoxicity testing. The experiment is classed as in vivo. Particulars: especially female.

Consider `CC1=CC(=O)CC(C)(C)[C@@]1(O)/C=C/C(C)=C\C(=O)O` [S-ABA, (S)-(+)-abscisic acid], for which the “FEMALE fetuses at scheduled necropsy, MEAN” value stood at 7.2 in experiment [1] (group 2, 500 MG/KG/DAY); 6.6 in experiment [1] (group 3, 750 MG/KG/DAY); 8.3 in experiment [1] (group 4, 1,000 MG/KG/DAY). Also, the “MALE fetuses at scheduled necropsy, MEAN” value in experiment [1] (group 2, 500 MG/KG/DAY) is reported as 7.5; in experiment [1] (group 3, 750 MG/KG/DAY) it was 7.5; in experiment [1] (group 4, 1,000 MG/KG/DAY), 6.8. The “VIABLE FETUSES at scheduled necropsy, MEAN” value in experiment [1] (group 2, 500 MG/KG/DAY) was 14.7; in experiment [1] (group 3, 750 MG/KG/DAY), 14.2; in experiment [1] (group 4, 1,000 MG/KG/DAY), 15.1. In addition, the “PROSTATE WEIGHT, mean” value in the experiment on rats [2] (group 2, 2,000 ppm in diet) is on record as “MEAN = 0.731 GRAMS”; in the experiment with rats [2] (group 3, 6,000 ppm in diet), “MEAN = 0.908 GRAMS”; in the experiment with rats [2] (group 4, 20,000 ppm in diet), “MEAN = 0.827 GRAMS”. The “effect on triglyceride levels” value in the experiment on rats [2] (male and female rats, 2,000 ppm to 20,000 ppm) is recorded as “dose dependent decrease in triglyceride levels”. Besides, in the experiment on rats [3], the alertness entry is recorded as “heighten alertness”.
